For series [1] the following is noted: rat, in vivo.
Series [2] is described as follows: introduction ratio into the vesicle (phenol-sulfuric acid method). Type of series: physicochemical. To be noted: 3 mg MPDSG per 100 mg DPPC; dispersion diluted to 0.5% by weight, gel filtration. On the procedure: (§1) The ratio of introduction of the stabilizer into the vesicles is determined by treating the dispersion of the vesicles by gel filtration or ultracentrifuge to remove the superfluous stabilizer which has not been introduced into the vesicles, and quantitatively determining saccharide in respective fractions by a phenol-sulfuric acid method. The stabilizer of the present invention, when employed in an amount of from 2 to 10 mol %, is introduced into the vesicles in a ratio of 90% or more.
(§2) The stability of the vesicle dispersion which had been passed through the 0.05 μm filter was evaluated by measuring the change of absorbance (turbidity) at 500 nm with time on standing at room temperature by means of a UV-visible light spectrophotometer.
2.4 mg of DOMG prepared in the same manner as in Example 11 was dissolved in 1 ml of chloroform. This solution was mixed with a solution of 100 mg of DPPC in 5 ml of chloroform, thereby DOMG being 2 mol % of DPPC. The solution mixture was evaporated by means of an evaporator to form a thin film on the inside wall of an eggplant-shape flask. Then 10 ml of pure water was added thereto so as to obtain a concentration of 1.0% by weight of the vesicles. The mixture was stirred with glass beads by means of a vortex mixer, and subsequently treated by an extruder to prepare a dispersion of DOMG-modified DPPC vesicles having controlled diameters of particles. A portion of the resulting dispersion was diluted to a fivefold volume with pure water to prepare a dispersion having vesicle concentration of 0.2% by weight.
The two dispersions of the DOMG-modified vesicles having concentrations of 1.0% by weight and 0.2% by weight were left standing at 4° C. for 24 hours, and were ultracentrifuged (300000 G, 60 minutes). The free DOMG in the supernatant was determined by a phenol-sulfuric acid method, and therefrom the ratio of introduction DOMG to the vesicles was calculated.
As the results, the introduction ratios were 94.3%, and 77.0% respectively at the vesicle concentrations of 1.0% by weight and 0.2% by weight. The results are shown in Table 4 together with the results of Comparative Examples 6 and 7 described later in which an oligosaccharide derivative was employed.
In general terms: In gel filtration, larger molecules generally elute earlier.

Series [3] in a line: viscosity of vesicle dispersion on addition of calcium ion (rotating viscometer). It counts as physicochemical. To be noted: 5 mM calcium chloride. On the procedure:
The stability of the vesicles was evaluated as below. The precipitate of the vesicles prepared by centrifuge was dispersed again into saline by a vortex mixer. To this sample, calcium chloride (as calcium ion) was added to be 5 mM, and the viscosity of the dispersion was measured with a rotating viscometer (Vismetron VS-AK). The viscosity of 5 cp was not changed by addition of the calcium ion.
To this dispersion, calcium chloride (as calcium ion) was added to be 5 mM, and the viscosity of the dispersion was measured with a rotating viscometer (Vismetron VS-AK).
To this dispersion, calcium chloride (as calcium ion) was added to be 5 mM, and the viscosity of the dispersion was measured with a rotating viscometer (Vismetron VS-AK). The viscosity of 5 cp was not changed by addition of the calcium ion. On the contrary, the dispersion of the vesicles prepared from powdery lipid mixture not containing DACOA (DPPC:cholesterol:distearylphosphatidic acid=10:9:0.9 in molar ratio) aggregated immediately on addition of calcium ion because of negative charge on the surface of the vesicle, causing the viscosity rise up to 11 cp.
The stability of the dispersion of the DOLG-modified vesicles having adjusted particle diameters was evaluated by addition of 5 mM calcium chloride and observing the viscosity change. The viscosity was measured at 37° C. by a rotating viscometer. […] On the contrary, a dispersion of unmodified vesicles prepared from a powdery lipid mixture containing no DOLG (DPPC:cholesterol:stearic acid=7:7:2 in molar ratio) caused immediate aggregation of the vesicles on addition of calcium ion in the same manner as above because of the negative charge on the surface of the vesicle, and the viscosity increased up to 11 cp. Accordingly, the sufficient effect of the DOLG, a vesicle stabilizer of the present invention, was confirmed in inhibiting the aggregation of vesicles by calcium ion.

Series [4] relates to washed human RBC (red blood cell). To be noted: washed red blood cells, 2 h, pH 7.4.
Series [5] in a line: particle diameter of modified vesicles. It counts as physicochemical.
Series [6] in a line: introduction ratio into mixed lipid vesicles. It counts as physicochemical. The conditions noted are these: DPPC:cholesterol:distearyl phosphatidic acid:MPDSG 10:9:0.9:0.5. On the procedure: as §1
The effect of the LPMS of the present invention on stabilization of vesicles was evaluated as follows. A powdery lipid mixture containing LPMS was prepared from dimyristoyl phosphatidylcholine, cholesterol, myristic acid, and LPMS (in molar ratio of 7:7:2:0.3) was prepared by freeze-drying. 100 ml of saline was added to 10 g of the above powdery lipid mixture, and the mixture was stirred at 4° C. for 24 hours to prepare a liquid dispersion. […] The introduction ratio of the LPMS was 85% according to saccharide determination of the supernatant liquid after centrifugation.
500 mg of a powdery lipid mixture containing MPDSG of the present invention was prepared from DPPC, cholesterol, distearyl phosphatidic acid, and MPDSG (in molar ratio of 10:9:0.9:0.5) was prepared by freeze-drying from benzene. […]

Series [7] can be described thus: change of turbidity at 500 nm with time on standing at room temperature (FIG. 1). Type of series: physicochemical. To be noted: 0.5% by weight. On the procedure:
The dispersion stability of the vesicle is evaluated by measuring the change with time of the absorbance (turbidity) with a spectrophotometer at a wavelength of 500 to 800 nm of the gel-filtered dispersion which is left standing at room temperature. Otherwise, the dispersion stability of the vesicle can be measured by the viscosity of the vesicle dispersion with a rotating viscometer, or microscopic observation by electron microscopy.
The ability of the oligosaccharide lipid of the present invention, namely of MPDSG, for stabilizing a vesicle was evaluated as follows. 3 mg of MPDSG and 100 mg of dipalmitoyl phosphatidylcholine (hereinafter referred to "DPPC") as a phospholipid were dissolved in methanol. The methanol was evaporated by use of a rotary evaporator to form a thin film on the inside wall of an eggplant shape flask. Thereto, 5 ml of pure water and several glass beads were added, and the content of the flask was agitated at 60° C. by means of a vortex mixer to form a whitish turbid liquid. This whitish turbid liquid was treated with an extruder. […]
as §2

Regarding “maltopentaose distearyl glycerol [MPDSG]”, the “average half-life from the blood stream” value in series [1] is 38 h. For the same substance, the “introduction ratio into the vesicle” value in series [2] is given as 99%. Further, the “inhibition of aggregation of vesicles by calcium ion (in words)” value in series [3] was “inhibited nearly completely”. Also, the “viscosity change on addition of calcium ion (in words)” value in series [3] was “not changed”. The “viscosity of the dispersion with calcium ion” value in series [3] (Vismetron VS-AK) was 5 cp. Moreover, the hemolysis in series [4] is recorded as 5%. Further, the average diameter in series [5] (DPPC vesicle, 0.05 μm extruder, particle size analyzer) came to 57±12 nm; in series [5] (DPPC vesicle, 0.05 μm extruder, transmission electron microscope with negative stain), 55±10 nm; in series [5] (hemoglobin-enclosing vesicles, microfluidizer, before 0.2 μm extrusion), 300±98 nm. The average particle diameter in series [5] (hemoglobin-enclosing vesicles after 0.2 μm extrusion and gel filtration) is 203±50 nm; in series [5] (mixed lipid vesicles, 0.2 μm filter by extruder), 200 nm. Besides, the introduction ratio in series [6] is listed as 98%. The “inhibition of aggregation (in words)” value in series [7] is on record as “little turbidity increase later, showing the inhibition of the aggregation”. For the same substance, the “turbidity rise in comparison with that of the unmodified vesicle” value in series [7] is “about 7%”.

The record behind these values is patent US5472951A, “Stabilizer for phospholipid vesicles” (Chiba Flour Milling Co., Ltd., priority 1992, dated 1995).
